Test results taken from patent US11337971B2, “Dopamine D3 receptor selective antagonists/partial agonists and uses thereof” (THE UNITED STATES OF AMERICA, AS REPRESENTED BY THE …, priority 2018, dated 2022).
Entries after “also recorded” stand apart in the source; their conditions may differ.

Key:
Male Long-Evans rats [1] = assay: Naloxone-precipitated conditioned place aversion (CPA) in chronic oxycodone-treated rats; type: in vivo, rat; conditions: 5 or 15 mg/kg, i.p., 1 h before naloxone conditioning
Experimental: Naloxone-precipitated CPA was tested in a place-conditioning apparatus (Med Associates, St Albans, Vt.) consisting of two side compartments (21 cm×28 cm) and a central gray connecting area (21 cm×12.5 cm); a sliding door separated each compartment from the connecting area. The two side compartments differed in wall color (black vs white), floor type (stainless steel net vs stainless steel grid), and illumination. Before the experiment started, all the animals were allowed to explore the conditioning apparatus for 15 min (preconditioning).
Six groups (n=8/group) of rats were involved in this test, 3 groups were chronically treated with oxycodone (3 mg/kg, i.p.) and the other 3 with saline (1 ml/kg), twice daily (800 and 1800 h). Four hours following the morning injection on Day 4 and 6, the oxycodone treated rats were challenged with saline and immediately confined in one side compartment of the conditioning box for 30 min, while on Day 5 and 7, they were first pretreated with either vehicle or 1 of 2 doses of compound (±)-29 (5 and 15 mg/kg, i.p.) 3 h after morning oxycodone injection, and 1 h later, challenged with naloxone (1 mg/kg, i.p.). […] The time that animals spent in each compartment was recorded. The CPA score was calculated as the time difference (seconds) that animal spent in drug-paired versus saline-paired compartment.

Male Long-Evans rats [2] = assay: Hot plate test of oxycodone-induced antinociceptive response in rats; type: in vivo, rat
Experimental: Nociceptive tests were performed using a hot plate device (Model 39, IITC Life Science Inc., Woodland Hills, Calif., USA). The rat was put inside a transparent cage on the hot plate (52±0.2° C.). When thermal nociceptive signs such as licking, stomping the hind paw, or jumping from the plate appeared, the rat was immediately removed from the cage. […] The cut-off time for the test was 60 s to avoid tissue damage.
These experiments involved 8 groups of rats (n=8-9/group) in 2 series of repeated testing: 4 groups were used to test the effects of compound (±)-29 pretreatment on the time course of antinociception induced by oxycodone at a single dose, and another 4 groups were used to test the effects of compound (±)-29 pretreatment on the antinociception induced by various oxycodone doses. Each rat was first habituated to the testing environment for 1 h, followed by placement on the hot plate without treatment to obtain baseline response latencies. The groups in the time course test received baseline testing. Then, group 1 was pretreated with vehicle, and the other 3 groups were pretreated with a dose of compound (±)-29 (5, 15 or 25 mg/kg, i.p.). Fifteen min following the pretreatment, each rat was challenged with a saline injection (1 ml/kg) and, 30 min later, tested for the second time on the hot plate. On the next day, each group received the same pretreatment as on day 1, but challenged with oxycodone (2 mg/kg, i.p.), and each rat was then tested again at 30-, 60- and 120-min following oxycodone challenge. […] Data were calculated as % of maximum percentage effect (% MPE) using the formula: (treatment value−basal value)/(cutoff value−basal value)×100.
Methods: Compound (±)-29 was administered 15 minutes before saline or oxycodone challenge at 5 mg/kg, 15 mg/kg, and 25 mg/kg. […] The rat was then immediately removed from the hot plate and the time latency was recorded.

mice = assay: Basal locomotor activity in mice; type: in vivo
5-HT2C = 5-HT2C (Homo sapiens (Human), UniProt P28335); assay: 5-HT2C [125I]DOI binding; conditions: Table 3a; read-out: 5-HT2C [125I]DOI Ki ± SEM
human dopamine D3R = human dopamine D3R (Homo sapiens (Human), UniProt P35462); assay: D3R mitogenesis assay: stimulation or inhibition of quinpirole-stimulated mitogenesis in CHO cells; type: cell-based; conditions: Table 2a; inhibition of quinpirole-stimulated mitogenesis; read-out: Antagonist IC50 ± SEM
[3] = system: oxycodone-induced locomotor sensitization and CPP; assay: Acquisition of oxycodone-induced locomotor sensitization and CPP; conditions: in vivo
Male Long-Evans rats [4] = assay: Oxycodone-triggered reinstatement of drug-seeking behavior; type: in vivo, rat; conditions: 5-15 mg/kg, i.p., oxycodone priming 1 mg/kg
Experimental: For the three groups from Experiment 2, extinction sessions continued without drug treatment until the rats' average active lever-presses/session decreased to less than 10 responses over 3 consecutive sessions. On the following day, 2 groups of rats were first pretreated with 1 of 2 doses of compound (±)-29 (5 or 15 mg/kg) while another group with vehicle. Fifteen min following pretreatment, all the animals received a non-contingent injection of oxycodone priming (1 mg/kg, i.p.) and then were placed into the same operant chambers for another extinction session.

[5] = Phase I metabolic stability in rat liver microsomes; type: in vitro ADME; conditions: Rat liver microsomes
From the text: Rat Liver Microsome Metabolic Stability: Test compounds including 3-F analogues (C4a, C4b, C5a, C5b) and 29, 19 as well as the R-, S-enantiomers of C4a, C5a, 29 and 19 were screened for phase I metabolic stability in rat liver microsomes.

Male Long-Evans rats [6] = assay: Oxycodone self-administration under progressive ratio (PR) reinforcement; conditions: 5, 15, 25 mg/kg, i.p.
[7] = Phase I metabolic stability in human liver microsomes; type: in vitro ADME

Sequence of human dopamine D3R (P35462 whole entry): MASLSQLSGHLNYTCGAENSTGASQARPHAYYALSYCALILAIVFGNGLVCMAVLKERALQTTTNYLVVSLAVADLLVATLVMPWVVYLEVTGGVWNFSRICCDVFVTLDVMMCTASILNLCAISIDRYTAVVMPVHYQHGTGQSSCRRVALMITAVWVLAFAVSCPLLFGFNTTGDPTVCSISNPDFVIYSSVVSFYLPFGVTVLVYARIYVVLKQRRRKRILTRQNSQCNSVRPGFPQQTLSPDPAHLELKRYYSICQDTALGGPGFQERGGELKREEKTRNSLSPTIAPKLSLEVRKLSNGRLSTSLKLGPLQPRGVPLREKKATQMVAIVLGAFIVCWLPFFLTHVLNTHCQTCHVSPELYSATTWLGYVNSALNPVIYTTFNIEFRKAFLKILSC
Sequence of 5-HT2C (P28335 33-458, species assumed): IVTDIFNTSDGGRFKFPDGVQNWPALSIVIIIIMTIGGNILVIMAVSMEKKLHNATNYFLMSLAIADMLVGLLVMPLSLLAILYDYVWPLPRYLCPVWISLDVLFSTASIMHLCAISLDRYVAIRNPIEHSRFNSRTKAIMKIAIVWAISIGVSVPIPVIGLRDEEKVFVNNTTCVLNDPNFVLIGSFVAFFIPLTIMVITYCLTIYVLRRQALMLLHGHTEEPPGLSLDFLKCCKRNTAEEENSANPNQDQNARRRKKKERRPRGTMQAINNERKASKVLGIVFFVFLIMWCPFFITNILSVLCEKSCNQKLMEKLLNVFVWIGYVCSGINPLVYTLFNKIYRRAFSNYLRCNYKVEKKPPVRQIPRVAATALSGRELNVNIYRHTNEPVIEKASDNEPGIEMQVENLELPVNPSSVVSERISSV

CCc1cc(Cl)c(OC)c(N2CCN(CC(O)CCNC(=O)c3cc4ccccc4[nH]3)CC2)c1 (racemic) [Compound 29, N-(4-(4-(3-chloro-5-ethyl-2-methoxyphenyl)piperazin-1-yl)-3-hydroxybutyl)-1H-indole-2-carboxamide]
naloxone-precipitated CPA in chronically oxycodone-treated rats (Male Long-Evans rats [1]): dose-dependently attenuated the CPA induced by naloxone; also recorded: significantly blocked CPA induced by naloxone-precipitated withdrawal; also recorded: inhibition of naloxone-precipitated conditioned place aversion | effect of pretreatment on oxycodone antinociception (% MPE), hot plate (Male Long-Evans rats [2]; 5-25 mg/kg i.p. pretreatment, oxycodone 0.5-4 mg/kg, effect at 25 mg/kg): significant elevation of MPE %; also recorded: potentiated the antinociceptive effects of oxycodone; also recorded: produced a leftward shift in the dose-response curve of oxycodone; also recorded: significantly potentiated oxycodone's effect | thermal response 30 minutes following saline or oxycodone (2 mg/kg, i.p.) challenge (Male Long-Evans rats [2]; Example 6, 5, 15, 25 mg/kg, 15 minutes before challenge): no significant effects on animal's thermal response | basal locomotor activity (mice): nether significantly affected | Ki (5-HT2C): 2190 ± 460 nM | IC50 (human dopamine D3R): 360 ± 100 nM | acquisition of oxycodone-induced locomotor sensitization and CPP [3]: significantly inhibits acquisition of both oxycodone-induced locomotor sensitization and CPP | oxycodone-primed reinstatement of active lever-presses (Male Long-Evans rats [4]): dose-dependently blocked; also recorded: dose dependently reduced reinstatement to oxycodone seeking | % at 0 min. ([5]; 0 min): 100% | % at 30 min. ([5]; 30 min): 95% | % at 60 min. ([5]; 60 min): 85% | break-point for oxycodone self-administration under PR reinforcement (Male Long-Evans rats [6]): significantly and dose-dependently lowers the break-point; also recorded: dose-dependently lowered the PR break-point | % at 0 min. ([7]; 0 min): 100% | % at 30 min. ([7]; 30 min): 89% | % at 60 min. ([7]; 60 min): 73%
